Laboratory results from US6451544B2, “Identification of agents that protect against inflammatory injury to neurons” (Baylor College of Medicine, priority 1996, dated 2002).
“Also recorded” adds a separate entry of the source. Peptide text beside a SMILES is read from it.

Key:
[1] = test system: rat microglia stimulated with Aβ1-42; human microglia stimulated with fraction S5; experiment: Drug blockade of Aβ induced neuron killing by rat and human microglia; type: cell-based; conditions: vitamin E 100 μM, catalase 25 units/ml, glutathione 100 μM, L-NIO 10 μM, DPI 300 nM, glutamate antagonists 10 μM
Description: A number of cytotoxic factors have been reported to participate in Aβ neurotoxicity, including radicals (Behl et al., 1994), nitric oxide (Meda et al., 1995), cytokines (Mrak et al., 1995), and NMDA-like molecules (Giulian et al., 1995a).

[2] = type: physicochemical
Description: Properties and sources of amyloid peptides. […] Solubility of peptides is described for chemically-defined culture media at 37° C.

[3] = test system: HEK cells expressing NMDA1b/2A; experiment: NTox exposure of HEK cells expressing NMDA receptors (trypan blue); type: cell-based, human
Description: FIG. 6A) Photomicrograph of trypan blue(+) control HEK cells exposed to NTox.
Presence of neurotoxic activity will be determined by reduction in cell number, changes in biochemical markers such as loss of cell metabolic function, release of intracellular material, penetration of impermeant dyes, such as and not limited to fluorescent nuclear dyes and trypan blue (FIG. 6), reduction of the number of neurons, loss of neurofilament or synaptophysin, release of lactate dehydrogenase, or other evidence of cell injury.

[4] = test system: microglia stimulated by Aβ1-42; experiment: In vitro screening of drugs which inactivate microglia stimulated by Aβ1-42; type: cell-based; conditions: mixed with Aβ peptides; for prevention of neurotoxic microglia, signal transduction inhibitors: test concentrations 0.01 to 100 μM
Description: Such in vitro assays permit rapid screening of drugs with therapeutic potential for Alzheimer Disease.
Such in vitro assays permit rapid screening of drugs which serve as lead compounds for development of therapeutics for Alzheimer Disease.
Once activated by plaque components, microglia release neurotoxic agents. Although many drugs are known to suppress the immune system outside the brain, it is not known which drugs actually have the ability to inactivative plaque-stimulated microglia within the brain and thus prevent the immune-mediated damage caused by Alzheimer Disease. […] Activated microglia also require intracellular events signaled by signal transducers, to convert the plaque or Aβ complex formation with microglia into cellular events which lead to the production and release of neurotoxins including NTox. […] Thus, the use of the microglia-neuron assay systems allowed identification of specific drug families with value in the treatment of Alzheimer Disease.

[5] = test system: neurons; experiment: Neuroprotective effects of NTox-like compounds; type: cell-based
[6] = test system: rat hippocampal cultures supplemented with microglia; experiment: Neurotoxicity assay: hippocampal neuron cultures supplemented with microglia (induction of neurotoxic microglia); type: cell-based
Description: Rat microglia were isolated from newborn animals using the method of Giulian and Baker, 1986, with recovery of >98% homogenous population monitored by binding the fluorescent probe acetylated low density lipoprotein labeled with 1,1′-dioctadecyl-3,3,3′,3′-tetramethyl-indo-carbocyanine [Dil-ac-LDL]). Amyloid proteins were isolated from AD neocortical gray matter laden with neuritic and core plaques with final separations involving a discontinuous sucrose gradient. […] Cultured neurons prepared from rat hippocampus consisted of process-bearing neurons (10-20% of total cell population) atop a bed of astroglia (>70%) mixed with microglia (5-10%). In order to eliminate microglia, cultures were exposed saporin (a ribosome-inactivating protein) coupled to acetylated LDL (ac-LDL) for 10 pg/ml for 18 hours. […] After 14 days in vitro, cultures (with a final concentration of 0.6% serum) were exposed to test substances in the presence or absence of exogenous microglia for 72 hours. […] Data were expressed as % mean survival expressed in terms of parallel untreated control cultures after scoring at least 8 randomly selected fields for each of 3 coverslips from at least 3 independent experiments. […]

[7] = test system: rat microglia; experiment: Binding of Aβ peptide-coupled fluorescent microspheres to microglia; conditions: 1 micron fluorescent microspheres
Description: Fluoresbrite carboxylate microspheres (YG 1.0 μm, Polysciences; 0.5 ml of a 2.5% suspension) were washed twice in 0.1 M carbonate buffer (pH 9.6) and three times in 0.02 M sodium phosphate (pH 4.5). Carbodiimide was then added dropwise to a final concentration of 1% and the suspension mixed for 4 hours at room temperature. Following 3 more washes in 0.02M sodium phosphate, the pellet was resuspended in 1.2 ml of 0.2 M borate buffer (pH 8.5) and 300 μg Aβ (or control peptide) and 5% DMSO added. After overnight mixing at room temperature, the microspheres were blocked by 1 M glycine (pH 8.0) for 30 minutes and washed in 10 mg/ml BSA in phosphate buffer.
To delineate further which portions of the Aβ peptide served as a microglial binding site, a variety of synthetic peptides coupled to 1 micron diameter microspheres was next compared.

[8] = test system: brain neocortex; experiment: Microsphere implants in brain neocortex; type: in vivo
Description: FIGS. 7A, B, and C show SpheresAβ1-42 in vivo. Weeks after implantation of large microspheres (250 micron diameter) remain embedded within brain neocortex (FIG. 7A). […] Microglia were visualized by uptake of fluorescent labeled acetylated LDL, Dil-ac-LDL Bar=40 μm, FIG. 7A; 25 μm FIGS. 7B and C.
Data support histological changes.
In vivo binding, activation, and neurotoxicity assays involve infusion of a tagged plaque component coupled to a solid support such as microspheres (FIG. 7) into a mammalian brain. Following infusion of materials, a test compound may be co-injected into the brain intraventricularly or intracranially by cannula with delivery systems including syringes or implanted osmotic pumps. A test compound may also be delivered systemically by intraperitoneal, intravenous, intra-arterial, nasal, or oral routes. Evidence of immune activation of the brain by a plaque component may be monitored using histological, biochemical, or molecular methods such as quantitative reverse transcriptase polymerase chain reaction method to identify cell markers of immune responses including surface proteins, enzymes, or cytokines (FIG. 8). The production of neurotoxic activity may be assayed by histochemical (FIG. 7) or biochemical to identify cell markers of immune responses including injury or destruction of neurons. […]

[9] = test system: microglia; experiment: SpheresAβ1-42 binding to microglia; parameters: species or system rat; conditions: for SpheresAβ1-42 binding to microglia in presence of GAGs or scavenger receptor ligands: heparin sulfate 50 μg/ml, dextran sulfate 500 μg/ml, ac-LDL 200 μg/ml
Description: (§1) Isolated microglia (1000 per mm^2 ) were placed atop 16 mm glass coverslips in 24-well culture plates. Each well then received 250,000 SpheresAβ1-42 or Spheresmal-BSA in the presence or absence of Aβ peptides, GAGs, or scavenger receptor ligands. Binding assays were carried out at 37° C. for 4 hours after which coverslips were dipped 10 times in phosphate buffer and fixed with 4% buffered paraformaldehyde. Microsphere adherence to cells was scored at 200 magnification with phase/fluorescence microscopy. Data, expressed as % inhibition of sphere binding, was calculated from total number of spheres per field noted for control cultures receiving spheres only. Values are based upon at least 3 coverslips from 2 independent experiments. Fluoresbrite carboxylate YG microspheres (1.0 micron diameters; 0.5 ml of a 2.5% suspension) were activated with 1% carbodiimide for 4 hr at room temperature. Washed spheres were resuspended in 0.2 M borate buffer (pH 8.5) in the presence of 300 μg Aβ or 400 μg BSA in 6% DMSO. After overnight mixing at room temperature, the spheres were washed extensively and blocked by 1 M glycine (pH 8.0) for 30 minutes. Maleylation of coupled BSA was carried out at room temperature by adding 1 M maleic anhdyride in acetonitrile at pH 9.0.

[10] = test system: scavenger receptors; experiment: Spheresmal-BSA binding to microglia; parameters: species or system rat
Description: as §1

[11] = trypsin 5000 units/ml 60 min, heparinase 2 x 0.01 units/ml, chondroitinase ABC 2 x 0.02 units/ml

## NC(CCCP(=O)(O)O)C(=O)O (stereo not drawn) [AP5]
[1]
  protection against microglia-mediated neuron killing: prevented neuronal loss; also recorded: prevented neuron death

## NC(CCCCCP(=O)(O)O)C(=O)O (stereo not drawn) [AP7]
[1]
  protection against microglia-mediated neuron killing: prevented neuronal loss; also recorded: blocked neuron death

## CC(C)C[C@H](NC(=O)[C@H](CCCCN)NC(=O)[C@H](CCC(N)=O)NC(=O)[C@H](Cc1cnc[nH]1)NC(=O)[C@H](Cc1cnc[nH]1)NC(=O)[C@@H](N)C(C)C)C(=O)N[C@H](C(=O)N[C@@H](Cc1ccccc1)C(=O)N[C@@H](Cc1ccccc1)C(=O)N[C@@H](C)C(=O)N[C@@H](CCC(=O)O)C(=O)N[C@@H](CC(=O)O)C(=O)N[C@H](C(=O)NCC(=O)N[C@@H](CO)C(=O)N[C@@H](CC(N)=O)C(=O)N[C@@H](CCCCN)C(=O)O)C(C)C)C(C)C [Aβ12-28]
[2]
  Solubility: soluble

## CC[C@H](C)[C@H](NC(=O)[C@H](C)NC(=O)CNC(=O)[C@H](CCCCN)NC(=O)[C@H](CC(N)=O)NC(=O)[C@H](CO)NC(=O)CNC(=O)[C@@H](NC(=O)[C@H](CC(=O)O)NC(=O)[C@H](CCC(=O)O)NC(=O)[C@H](C)NC(=O)[C@H](Cc1ccccc1)NC(=O)[C@H](Cc1ccccc1)NC(=O)[C@@H](NC(=O)[C@@H](N)CC(C)C)C(C)C)C(C)C)C(=O)N[C@H](C(=O)NCC(=O)N[C@@H](CC(C)C)C(=O)N[C@@H](CCSC)C(=O)N[C@H](C(=O)NCC(=O)NCC(=O)N[C@H](C(=O)N[C@H](C(=O)N[C@H](C(=O)N[C@@H](C)C(=O)O)[C@@H](C)CC)C(C)C)C(C)C)C(C)C)[C@@H](C)CC [Aβ17-42] (H-LVFFAEDVGSNKGAIIGLMVGGVVIA-OH; N-terminus and C-terminus assumed)
[2]
  Solubility: very insoluble

## CC[C@H](C)[C@H](NC(=O)[C@H](C)NC(=O)CNC(=O)[C@H](CCCCN)NC(=O)[C@H](CC(N)=O)NC(=O)[C@H](CO)NC(=O)CN)C(=O)N[C@H](C(=O)NCC(=O)N[C@@H](CC(C)C)C(=O)N[C@@H](CCSC)C(=O)O)[C@@H](C)CC [Aβ25-35] (H-GSNKGAIIGLM-OH; N-terminus and C-terminus assumed)
[2]
  Solubility: soluble

## c1ccc([I+]c2ccccc2)cc1 [DPI, diphenyl iodonium]
[1]
  protection against microglia-mediated neuron killing: no reduction of microglia-mediated neuron killing; also recorded: No protective effects were observed

## N[C@H](CCC(=O)NCS(=O)(=O)O)C(=O)O [GAMS]
[1]
  protection against microglia-mediated neuron killing: did not

## CC(=N)NCCC[C@H](N)C(=O)O.Cl [L-NIO, L-N-5-(1-imin-oethyl)ornithine hydrochloride]
[1]; hydrochloride
  protection against microglia-mediated neuron killing: no reduction of microglia-mediated neuron killing; also recorded: No protective effects were observed

## C[C@]12N[C@H](Cc3ccccc31)c1ccccc12 [MK-801]
[1]
  protection against microglia-mediated neuron killing: prevented neuronal loss
[1]; listed as MK801
  protection against microglia-mediated neuron killing: blocked neuron death
[3]
  blockade of NTox killing effect: could be blocked

## CCN(CC)CCCC(C)Nc1ccnc2cc(Cl)ccc12 (stereo not drawn) [chloroquine]
[4]; test concentrations 0.1 to 10 μM
  prevention of neurotoxic microglia, immuno-suppressive drugs: had a protective effect; also recorded: block neuron killing

## COc1c(C=O)c(O)cc2c1C(=O)c1ccccc1C2=O [damacanthal]
[4]
  prevention of neurotoxic microglia, signal transduction inhibitors: had a protective effect

## O=c1c(-c2ccc(O)cc2)coc2cc(O)cc(O)c12 [genistein]
[4]
  prevention of neurotoxic microglia, signal transduction inhibitors: had a protective effect

## N[C@@H](CCC(=O)N[C@@H](CS)C(=O)NCC(=O)O)C(=O)O [glutathione]
[1]
  protection against microglia-mediated neuron killing: no reduction of microglia-mediated neuron killing; also recorded: did not block microglial killing of neurons

## CC(C(O)c1ccc(O)cc1)N1CCC(Cc2ccccc2)CC1 (stereo not drawn) [ifenprodil]
[1]
  protection against microglia-mediated neuron killing: prevented neuronal loss; also recorded: blocked neuron death

## NCCc1ccc(O)cc1 [tyramine]
[5]; 100 μM quinolinic acid (QUIN)
  protection of neurons against quinolinic acid: protective effect did not occur; also recorded: did not block
[5]; microglia stimulated with Aβ1-42 or isolated NTox applied to neurons
  protection of neurons against NTox / Aβ1-42-stimulated microglia: prevented neuronal injury; also recorded: did not damage neurons in the presence of tyramine

## SpheresAβ1-42: Aβ1-42 coupled to microspheres
[6]; 250,000 microspheres per culture, 100,000 microglia per culture, 72 hour incubation
  capacity to elicit neurotoxic microglia, coupled to microspheres or in solution: induced neuron killing
[7]
  uptake of peptide-coupled microspheres by microglia in culture: rapidly engulfed by cultured microglia
[8]; 250 micron spheres, weeks after implantation
  reactive microglia around implanted microspheres: chronically stimulate the presence of reactive cells
[8]; two weeks after implantation, vs undamaged control tissue or SphereBSA
  increase in scavenger receptor II mRNA in tissue surrounding implant: 5 fold

## catalase
[1]
  protection against microglia-mediated neuron killing: no reduction of microglia-mediated neuron killing; also recorded: did not block microglial killing of neurons

## chondroitin sulfate
[9]
  SpheresAβ1-42 binding to microglia in presence of GAGs or scavenger receptor ligands: not similar compounds; also recorded: only heparin sulfate blocked

## dextran sulfate
[9]
  SpheresAβ1-42 binding to microglia in presence of GAGs or scavenger receptor ligands: not similar compounds
[9]; listed as dextm sulfate
  SpheresAβ1-42 binding to microglia in presence of GAGs or scavenger receptor ligands: only heparin sulfate blocked
[10]; dextran sulfate 500 μg/ml, ac-LDL 200 μg/ml, Aβ1-16 10 μmole/l
  Spheresmal-BSA binding to microglia in presence of ligands: blocked Spheresmal-BSA binding

## heparin sulfate
[9]
  SpheresAβ1-42 binding to microglia in presence of GAGs or scavenger receptor ligands: reduction of binding; also recorded: blocked SpheresAβ1-42 binding
[9]; listed as heparan sulfate
  SpheresAβ1-42 binding to microglia in presence of GAGs or scavenger receptor ligands: block Aβ binding to microglia

## rodent Aβ1-42: rodent form of Aβ1-42 (DAEFGHDSGFEVRHQKLVFFAEDVGSNKGAIIGLMVGGVVIA; Amyloid-beta protein 42; UniProt P12023 672-713, looked up, fragment)
[6]; peptide in solution, typically 1 μmole/l, 72 hours, microglia 500 per mm^2
  induction of neurotoxic microglia / neuron killing in presence of microglia: does not induce toxicity

## trypsin
[9]; [11]
  SpheresAβ1-42 binding after enzymatic pre-treatment of microglia: reduced
[10]; [11]
  Spheresmal-BSA binding after enzymatic pre-treatment of microglia: reduced

## vitamin E
[1]
  protection against microglia-mediated neuron killing: no reduction of microglia-mediated neuron killing; also recorded: did not block microglial killing of neurons
